Results published in US20110218360A1, “PREPARATION OF RASAGILINE AND SALTS THEREOF” (DR. REDDY'S LABORATORIES LTD., priority 2008, published 2011).
Where a name gives a salt, the structure may show the parent alone. Read-outs that look alike come from different tables or passages of the source.

What was measured:
[1] = particle size distribution after micronisation
Description: (§1) The D10, D50, and D90 values are useful for indicating a particle size distribution. D90 refers to 90 volume percent of the particles having a size smaller than the specified value. Likewise D10 refers to 10 volume percent of the particles having a size smaller than the specified value. D50 refers to 50 volume percent of the particles having a size smaller than the specified value. Methods for determining D10, D50 and D90 include laser diffraction, such as using Malvern equipment (from Malvern Instruments Limited, Malvern, Worcestershire, United Kingdom).

[2] = for D10 / D50 / D90: storage at 25±2° C., relative humidity 65±5%; for change of particle size distribution / agglomerate formation on storage: ambient storage, up to 18 days, exposure to atmosphere
Description: as §1
Rasgiline mesylate (6 g) prepared according to Example 28 is divided into three parts for storage under ambient conditions (temperature=25±2° C.; relative humidity=65±5%): unpackaged (P-I); in closed packages with a nitrogen atmosphere (P-II); and in closed packages with an air atmosphere (P-III). The samples are analyzed for particle size distribution on the 5th and 18th days.

| SMILES | D10 [1] [μm] | D50 [1] [μm] | D90 [1] [μm] | D[4,3] [1] [μm] | D10 ([2]; 5th day) [μm] | D50 ([2]; 5th day) [μm] | D90 ([2]; 5th day) [μm] | other results |
| --- | --- | --- | --- | --- | --- | --- | --- | --- |
| C#CCN[C@@H]1CCc2ccccc21 [Example 28, Rasagiline mesylate] | 0.663 | 1.592 | 3.219 | 1.792 | – | – | – | – |
| C#CCN[C@@H]1CCc2ccccc21 [Example 27, Rasagiline mesylate] | 0.779 | 2.285 | 5.517 | – | – | – | – | – |
| C#CCN[C@@H]1CCc2ccccc21 [rasagiline mesylate, (1R)—N-prop-2-ynyl-2,3-dihydro-1H-inden-1-amine methanesulfonate, reference compound] | – | – | – | – | – | – | – | change of particle size distribution / agglomerate formation on storage ([2]; methanesulfonate): susceptible to agglomerate formation |
| C#CCN[C@@H]1CCc2ccccc21 [Example 31, Rasagiline mesylate] | 2.404 | 146.957 | 608.570 | – | – | – | – | – |
| C#CCN[C@@H]1CCc2ccccc21 [Example 30, Rasagiline mesylate] | 0.761 | 2.346 | 4.981 | 2.650 | – | – | – | – |
| C#CCN[C@@H]1CCc2ccccc21 [Example 32, Rasagiline mesylate] | 0.991 | 3.093 | 6.540 | 3.496 | – | – | – | – |

Now from value to molecule, other results behind:

| D10 [1] [μm] | D50 [1] [μm] | D90 [1] [μm] | D[4,3] [1] [μm] | D10 ([2]; 5th day) [μm] | D50 ([2]; 5th day) [μm] | D90 ([2]; 5th day) [μm] | SMILES | other results |
| --- | --- | --- | --- | --- | --- | --- | --- | --- |
| – | – | – | – | 1.182 | 3.566 | 120.731 | C#CCN[C@@H]1CCc2ccccc21 [P-III, Rasgiline mesylate] | D10 ([2]; 18th day): 1.365 μm; D50 ([2]; 18th day): 4.171 μm; D90 ([2]; 18th day): 144.617 μm |
| – | – | – | – | 1.319 | 4.216 | 151.379 | C#CCN[C@@H]1CCc2ccccc21 [P-I, Rasgiline mesylate] | – |
| – | – | – | – | 0.892 | 2.859 | 5.524 | C#CCN[C@@H]1CCc2ccccc21 [P-II, Rasgiline mesylate] | change of particle size distribution / agglomerate formation on storage [2]: substantially unchanged; D10 ([2]; 18th day): 1.065 μm; D50 ([2]; 18th day): 3.227 μm; D90 ([2]; 18th day): 6.282 μm |
